Measurements taken from patent US12643935B2, “PD-L1 binding peptides” (UNIVERSITY OF SOUTHERN CALIFORNIA, priority 2020, dated 2026).
Entries after “also recorded” stand apart in the source; their conditions may differ. Read-outs that look alike come from different tables or passages of the source.

Key:
[1] = target: T1, human PD-L2 (hPD-L2) (Homo sapiens, UniProt Q9BQ51); assay: Radiolabeled [35S] peptide binding assay on hPD-L2*; conditions: [35S]-labeled peptide
T1 construct: The hPD-L2* vector included amino acids L20-T220, an Avi Tag and a hexahistidine tag; hexahistidine tag; made in house; host or cells: Expi293F
T1 sequence (Q9BQ51 20-220): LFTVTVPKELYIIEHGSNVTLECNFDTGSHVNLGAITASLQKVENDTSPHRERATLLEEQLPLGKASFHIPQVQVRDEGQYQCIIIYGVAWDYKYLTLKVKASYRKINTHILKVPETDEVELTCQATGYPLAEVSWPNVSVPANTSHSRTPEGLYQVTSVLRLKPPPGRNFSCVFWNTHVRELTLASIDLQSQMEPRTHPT
Procedure: SPAM Peptide Selectively Binds to hPD-L1. SPAM was also tested for binding specificity towards mouse PD-L1 (mPD-L1) and human PD-L2 (hPD-L2) using radioactive binding assays. SPAM peptide mRNA was translated in vitro in the presence of [^35S]-methionine to generate [^35S]-labeled SPAM peptide.
[^35S]-labeled peptides were translated as described above by including 2 μCi labeled methionine (Perkin Elmer) per 10 pmol of template in the translation reaction. Each peptide was tested with a […] (for X9-library derived peptides) (SEQ ID NO: 11) or a […] (for X17-library derived peptides) (SEQ ID NO: 12) C-terminal sequence. […] The supernatant was removed and was counted. The beads were subsequently washed three times with 1 mL of blocking buffer and the washes were also counted. Finally, the beads were resuspended in 1 mL of blocking buffer and were counted separately. The ratio of the counts remaining on the beads to the total counts added to the binding reaction (the sum of the counts for supernatant, washes, and beads) was calculated to determine the percent bound.

[2] = target: T2, hPD-L1/mPD-1 interaction (Homo sapiens, UniProt Q9NZQ7); assay: ELISA/IP assay of hPD-L1/mPD-1 interaction; type: biochemical; conditions: 10 μM SPAM
T2 construct: designed from A18 to T239 with a methionine added to the N-terminus; hexahistidine tag (C); made in house; host or cells: E. coli BL21 (DE3)
T2 sequence (Q9NZQ7 with tags, fused parts or gaps): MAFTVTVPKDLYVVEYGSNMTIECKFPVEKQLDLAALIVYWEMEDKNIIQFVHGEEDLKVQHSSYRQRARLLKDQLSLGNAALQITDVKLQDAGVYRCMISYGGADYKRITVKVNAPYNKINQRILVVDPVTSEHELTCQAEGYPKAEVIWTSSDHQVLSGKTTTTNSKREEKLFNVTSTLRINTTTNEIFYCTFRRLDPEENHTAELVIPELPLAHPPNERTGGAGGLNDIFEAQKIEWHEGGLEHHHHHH
Procedure: An ELISA-based activity assay was employed to measure the potency of SPAM peptide inhibition of the hPD-L1/PD-1 interaction (FIG. 4C-D). In this assay, biotinylated hPD-L1 was immobilized on streptavidin magnetic beads and incubated with various concentrations of SPAM peptide, followed by incubation with HA-tagged mPD-1 and detection with anti-HA secondary antibody.
For ELISA/IP assays, 20 L of MyOne™ Streptavidin T1 magnetic beads Dynabeads™ (Thermo Fisher Scientific) were loaded with 100 nM biotinylated hPD-L1 in assay buffer (20 mM HEPES-KOH pH 7.5, 150 mM NaCl, 0.2% (v/v) Tween-20, 1 mg/mL BSA and 50 μg/mL tRNA) at 4° C. The beads were subsequently washed and incubated with either DMSO or different concentrations of SPAM peptide (0.1, 1 or 10 μM) in the assay buffer for 1 h at 4° C. followed by adding HA-tagged mPD-1 (100 nM) for 1 h at 4° C. The samples were then washed and incubated with a 1:5,000 dilution of HRP conjugated anti-HA antibody (Pierce HA Antibody, Rockford. Il, USA) for 1 h at 4° C. The beads were washed again and developed with TMB Substrate Kit (Thermo Scientific) for 30 minutes and the reactions stopped by adding 100 L of […] sulfuric acid. The absorbance at 450 nm was measured on a Biotek Synergy H1 Hybrid Multi-Mode Microplate Reader.

[3] = target: T3, hPD-L1 (Homo sapiens, UniProt Q9NZQ7); assay: hPD-L1 binding of [35S]-SPAM after incubation in 25% human serum; type: in vitro ADME; parameters: designed from A18 to T239 with a methionine added to the N-terminus; hexahistidine tag (C); made in house; conditions: 37° C.
T3 sequence (Q9NZQ7 with tags, fused parts or gaps): as above
Procedure: We performed two complementary assays to determine what effect serum has on the SPAM/hPD-L1 interaction.
In a complementary test, SPAM was in vitro translated and [^35S]-labeled as described above. After purification as above, the [^35S]-labeled peptide-RNA fusions were incubated with DMEM media supplemented with 25% (v/v) single donor human plasma at 37° C. in triplicate for 0, 60, 120, 240 and 480 min. The binding of serum incubated peptides was then evaluated on hPD-L1 immobilized beads using 75 pmol hPD-L1 immobilized on streptavidin agarose beads (Thermo Fisher scientific) in DMEM supplemented with 25% Serum buffer and 0.02 mM biotin at 4° C. for 1 h. The supernatant was removed and was counted. The beads were subsequently washed three times with 1 mL of blocking buffer and the washes were also counted. Finally, the beads were resuspended in 1 mL of blocking buffer and were counted separately. The ratio of the counts remaining on the beads to the total counts added to the binding reaction (the sum of the counts for supernatant, washes, and beads) was calculated to determine the percent bound.

[4] = target: T3, hPD-L1; assay: Fluorescence polarization of ROX-labeled SPAM with hPD-L1; type: binding; parameters: designed from A18 to T239 with a methionine added to the N-terminus; hexahistidine tag (C); made in house
Procedure: To evaluate the affinity of SPAM for hPD-L1 and hPD-L1*, we measured the KD by fluorescence polarization. […] The resulting values were plotted against the concentration of hPD-L1 or hPD-L1* and fit to a one-site saturation binding model with GraphPad Prism.
A stock solution of hPD-L1 or hPD-L1* with a 5 μM starting concentration was prepared and serially diluted to concentrations ranging from 5 μM to 2.4 nM. […] The fluorescence polarization of each sample was measured on a Synergy H4 Hybrid Multi-Mode Microplate Reader. Each measurement was carried out in triplicate and the mean value was calculated. The values were fit to a one-site saturation binding model in GraphPad Prism to obtain the corresponding equilibrium dissociation constants.

Question: What does the source list for `C#CC[C@H](NC(=O)CNC(=O)[C@H](CO)NC(=O)[C@H](C)NC(=O)[C@H](Cc1ccc(O)cc1)NC(=O)[C@H](Cc1c[nH]cn1)NC(=O)[C@H](CC(C)C)NC(=O)[C@@H](NC(=O)[C@H](Cc1c[nH]c2ccccc12)NC(=O)[C@H](Cc1ccccc1)NC(=O)[C@H](CCCCN)NC(=O)[C@H](CC(N)=O)NC(=O)[C@H](CC(C)C)NC(=O)[C@@H](NC(=O)[C@H](Cc1c[nH]cn1)NC(=O)[C@H](CC(=O)O)NC(=O)[C@H](CC(C)C)NC(=O)[C@H](Cc1ccccc1)NC(=O)[C@@H](NC(=O)[C@@H]1CCCN1C(=O)[C@@H](N)CCSC)[C@@H](C)CC)[C@@H](C)CC)[C@@H](C)CC)C(N)=O` (stereo in doubt) [SPAM]?
Answer: binding to hPD-L2 [1]: no significant binding; also recorded: essentially no binding; inhibition of mPD-1 binding to hPD-L1 [2]: almost completely disrupted; also recorded: almost completely inhibits; loss of binding in presence of human serum [3]: ~25%; binding to immobilized hPD-L1 after serum incubation ([3]; eight hours): no further decrease; binding to immobilized hPD-L1 after serum incubation ([3]; four hours): slight decrease; binding to immobilized hPD-L1 after serum incubation ([3]; two hours): No decrease; Kd ([4]; non-glycosylated hPD-L1, T=21° C., 100 nM ROX-SPAM, read-out: dissociation constant (KD) for hPD-L1): 119 nM; Kd ([4]; range over glycosylated and non-glycosylated hPD-L1, read-out: KD for hPD-L1): 67 to 119 nM
